# According to patent US20090110701A1, “T-CELL MODULATION” (THE UNIVERSITY COURT OF THE UNIVERSITY OF ABERDEEN, priority 2004, published 2009):
# B1: RhD autoantigen: AIHA-associated autoantigen RhD protein (protein, UniProt Q02161 2-417, looked up)
# Blood group Rh(D) polypeptide: SSKYPRSVRRCLPLWALTLEAALILLFYFFTHYDASLEDQKGLVASYQVGQDLTVMAAIGLGFLTSSFRRHSWSSVAFNLFMLALGVQWAILLDGFLSQFPSGKVVITLFSIRLATMSALSVLISVDAVLGKVNLAQLVVMVLVEVTALGNLRMVISNIFNTDYHMNMMHIYVFAAYFGLSVAWCLPKPLPEGTEDKDQTATIPSLSAMLGALFLWMFWPSFNSALLRSPIERKNAVFNTYYAVAVSVVTAISGSSLAHPQGKISKTYVHSAVLAGGVAVGTSCHLIPSPWLAMVLGLVAGLISVGGAKYLPGCCNRVLGIPHSSIMGYNFSLLGLLGEIIYIVLLVLDTVGAGNGMIGFQVLLSIGELSLAIVIALMSGLLTGLLLNLKIWKAPHEAKYFDDQVFWKFPHLAVGF
# Legend:
# Assay type in all cases: cell-based, human
# [1] = system: Lymphocytes from patients with autoimmune haemolytic anaemia; assay: Peptide mapping assay for sCTLA-4 production (RhD peptides); conditions: 1 million lymphocytes per peptide, five days at 37° C., seven AIHA patients, FIG. 9
# Description: Peptide mapping experiments to identify peptides which stimulate sCTLA-4 production were performed as follows. Each peptide (1 to 42) was derived from the RhD autoantigen. Lymphocytes (1 million per peptide) from patients with autoimmune haemolytic anaemia were added to individual peptides and incubated for five days at 37° C. At the end of this period the cell cultures were assessed for an increase in sCTLA-4 production. In these assays a stimulation index of 2 is considered a positive result (twice as much sCTLA-4 detected compared with non-stimulated control).
# Certain peptides in some cases stimulated sCTLA-4 production by three, four or even ten times higher than non-stimulated cells alone.
# PBMC [2] = assay: sCTLA-4 secretion ELISA, PBMC from healthy adult donors
# PBMC [3] = assay: Cytokine secretion ELISA (IFN-γ, IL-10, IL-4) of PBMC cultures; conditions: FIG. 5a
# Description: (§1) Cytokine Secretion ELISA. ELISA were based on previously published methods and were performed from 3-7 days of in vitro cell culture. The following antibody pairs were used: purified mouse anti-IFN-γ (clone NIB42) and biotinylated mouse anti-IFN-γ (clone 4S.B3); purified mouse anti-IL-10 (clone JES3-19F1) and biotinylated mouse anti-IL-10 (clone JES3-12G8); purified mouse anti-IL-4 (clone 8D4-8) and biotinylated mouse anti-IL-4 (clone MP4-25D2) (all from BD Biosciences, Oxford, UK). All recombinant human cytokines (IFN-γ, IL-4, and IL-10) were purchased from Peprotech EC Ltd. (London, UK).
# PBMC [4] = assay: Proliferation assay (3H thymidine incorporation) of PBMC; conditions: FIG. 5a
# Description: Proliferation Assay. Cell proliferation was assessed by the incorporation of ^3H thymidine, as previously described.
# [5] = system: PBMC from patients with AIHA; assay: sCTLA-4 and IL-4 secretion by PBMC from AIHA patients incubated with RhD; conditions: one patient from an initial sample of six, FIG. 3
# Description: FIG. 3. Differential stimulation of sCTLA-4 secretion by PBMC sampled from AIHA patients in response to incubation with RhD protein antigen.
# as §1
# We also developed a similar secretion ELISA for sCTLA-4 with antibodies identified previously. Briefly, sCTLA-4 was measured in vitro by incubating a capture anti-CTLA-4 antibody (clone: BNI3 2μg ml^−1) in 96 well Nunc Maxisorp plates for 2 hours at 37° C. Plates were washed and blocked with 3% BSA before the addition of test cell culture suspension. […] Developed plates were measured with a Multiskan MS microplate photometer (Life and Laboratory Sciences, Basingstoke, UK) at an absorbance of 405 nm. […]
molecule,measurement,setting,value
"SSKYPRSVRRCLPLW [Peptide 1, peptide derived from the RhD autoantigen, residues 2-16]",stimulation of sCTLA-4 production (stimulation index versus non-stimulated control; 2 is positive),[1],particularly effective
anti-CD3 antibody: Stimulatory anti-CD3 antibody (clone OKT3) purified from hybridoma cell culture supernatants,"sCTLA-4 levels compared with non-stimulated PBMC, all individuals analyzed","PBMC [2]; 12 healthy individuals, FIG. 5b, P<0.01 Wilcoxon for PPD, anti-CD3 data not shown",invariably reduced
same,sCTLA-4 levels in vitro compared with non-stimulated PBMC,"PBMC [2]; individual donor profile, FIG. 5a, 5 days, 37° C., stimulus 5 μg ml−1",dramatically reduced
same,"IFN-γ secretion, PPD versus anti-CD3 cultures",PBMC [3],similar
same,"IL-10 secretion, anti-CD3 compared with PPD",PBMC [3],increase
same,"Proliferation, PPD versus anti-CD3 cultures",PBMC [4],similar
B1,IL-4 secretion compared with negative controls,[5],higher levels
same,sCTLA-4 secretion compared with negative controls,[5],higher levels
